Test [1] has as its system tissue of medial septum nuclei. Briefly: neurotrophic activity: acceleration of acetylcholine synthesis in medial septum nuclei tissue (method of Ojika et al.). It counts as cell-based. Particulars: qualitative statement, compared with rat-derived HCNP; no figures given. The source says: The neurotrophic activity (also called neurotrophic factor activity) refers to, for example, an action of regulating differentiation and maturation of neuronal cells, namely, an action of accelerating the acetylcholine synthesis in the tissue of medial septum nuclei which is rich in cholinergic neurons.
The human-derived neurotrophic peptide or its derivatives of the present invention can regulate differentiation and maturation of neuronal cells. That is, the neurotrophic peptide and derivatives thereof accelerate the acetylcholine synthesis in the tissue of medial septum nuclei. The biological activity can be determined by the method of Ojika, K., et al. (Reference 66).

The test system of test [2] is tissue of medial septum nuclei. Particulars: rat medial septum nuclei acetylcholinergic neuron; Reference 1; cited from earlier work.

Ends that are not written are not given here. Peptide text beside a SMILES is read from it.

This passage reports neurotrophic activity and production of acetylcholine results from EP0511816B1, “Neurotrophic peptide derivative” (SUMITOMO PHARMACEUTICALS COMPANY, LIMITED, priority 1991, dated 1999).

As to `CC(C)C[C@H](NC(=O)[C@@H]1CCCN1C(=O)CNC(=O)[C@H](CO)NC(=O)[C@H](Cc1c[nH]c2ccccc12)NC(=O)[C@H](CCCCN)NC(=O)[C@H](CO)NC(=O)[C@H](CC(C)C)NC(=O)[C@H](CC(=O)O)NC(=O)[C@@H](NC(=O)[C@@H]1CCCN1)C(C)C)C(=O)O` [hHCNP] (H-PVDLSKWSGPL-OH), the neurotrophic activity result in test [1] is on record as “neurotrophic activity similar to rat-derived HCNP was noted”. With “AADISQWAGPL [HCNP, Hippocampal cholinergic neurotrophic peptide of 11 amino acid residues isolated from hippocampal tissue of neonatal rat by Ojika et al]”, the production of acetylcholine result in test [2] is recorded as “enhances production of acetylcholine”.
